Data as given in patent US20080096894A1, “Anti-Bacterial Compounds” (ASTON UNIVERSITY, priority 2005, published 2008).
Counter-ions that a name gives are not always drawn.

Columns and labels:
Moraxella catarrhalis = test: MIC, doubling dilution in 96-well microtitre plate; assay type: cell-based
Description: (§1) The compound was tested as follows. […] The wells were inoculated with organism ([…] of medium containing 10^6 cfu/mL) and the plates were incubated at 37° C. overnight. Where growth of organism occurred this was observed as a small button when viewed from underneath the plate. The MIC was determined as the lowest concentration inhibiting growth.

Micrococcus roseus = test: MIC, doubling dilution in 96-well microtitre plate; assay type: cell-based
Description: as §1

E. cloacae = test: MIC, agar dilution, multipoint inoculator; assay type: cell-based, Enterobacter cloacae; conditions: Enterobacter cloacae, NCTC11582, 18 h
Description: (§2) This activity was measured using a multipoint inoculator method as follows. The MIC for each compound was measured using an agar dilution method (Onda, H., et al., Int. J. Antimicrob. Agents. 18, 263 (2001)) (Mueller Hinton agar) by means of a multipoint inoculator delivering 10^4 colony forming units per spot.

S. marcesens = test: MIC, agar dilution, multipoint inoculator; assay type: cell-based, Serratia marcescens; conditions: Serratia marcescens, 18 h
Description: as §2

S. aureus = test: MIC, agar dilution, multipoint inoculator; assay type: cell-based, Staphylococcus aureus; conditions: Staphylococcus aureus
Outline: (§3)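 Minimum inhibitory concentrations come from an agar dilution method using Mueller Hinton medium. Inocula of 10^4 colony forming units per spot were applied with a multipoint inoculator.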

P. auriginosa = test: MIC, agar dilution, multipoint inoculator; assay type: cell-based, Pseudomonas aeruginosa; conditions: Pseudomonas aeruginosa, NCTC6749, 18 h
Description: as §2

S. epidemisis = test: MIC, agar dilution, multipoint inoculator; assay type: cell-based, Staphylococcus epidermidis; conditions: Staphylococcus epidermidis
Outline: as §3

MRSA = test: MIC, agar dilution, multipoint inoculator; assay type: cell-based, methicillin-resistant Staphylococcus aureus
Outline: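 Agar dilution MIC on Mueller Hinton agar, multipoint inoculator delivering 10^4 colony forming units per spot. MRSA values are ranges across ten clinical MRSA strains; S. aureus NCTC 6571 as reference strain.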

[1] = system: vancomycin resistant enterococci; test: MIC, agar dilution, multipoint inoculator; assay type: cell-based
Description: as §2
It will be noted that compound 4PYcq was active against all strains of MRSA as well as all other Gram positive bacteria. For this reason it was further tested against some vancomycin resistant enterococci, using the multipoint inoculator method described above. It can be seen from Table 5 that the high level activity was retained.

K. pneumoniae = test: MIC, agar dilution, multipoint inoculator; assay type: cell-based, Klebsiella pneumoniae; conditions: Klebsiella pneumoniae, 18 h
Description: as §2

B. bronchiseptica = test: MIC, agar dilution, multipoint inoculator; assay type: cell-based; conditions: Bordetella bronchiseptica, NCTC8344, 18 h
Outline: as §3

E. faecalis = test: MIC, agar dilution, multipoint inoculator; assay type: cell-based; conditions: Enterococcus faecalis, upper value of MIC reading
Outline: as §3

S. maltophilia = test: MIC, agar dilution, multipoint inoculator; assay type: cell-based; conditions: Stenotrophomonas maltophilia, NCTC10257, 18 h
Outline: as §3

S. haemolyticus = test: MIC, agar dilution, multipoint inoculator; assay type: cell-based; conditions: Staphylococcus haemolyticus, 18 h
Outline: as §3

S. aboni = test: MIC, agar dilution, multipoint inoculator; assay type: cell-based; conditions: S. aboni NCTC 6017; upper value of MIC reading
Outline: as §3

E. faecium = test: MIC, agar dilution, multipoint inoculator; assay type: cell-based, Enterococcus faecium; conditions: Enterococcus faecium
Outline: as §3

E. coli = test: MIC, agar dilution, multipoint inoculator; assay type: cell-based, Escherichia coli
Description: as §2

Micrococcus luteus = test: MIC, doubling dilution in 96-well microtitre plate; assay type: cell-based
Description: as §1

NC(=NN=Cc1ccccc1Sc1ccc(Cl)cc1)c1cc[n+]([O-])cc1 [Compound 4PYOeh]
MIC (Moraxella catarrhalis): 64 to 128 µg/mL
MIC (Micrococcus roseus): 32 to 64 µg/mL

CN[C@H](CC(C)C)C(=O)N[C@H]1C(=O)N[C@@H](CC(N)=O)C(=O)N[C@H]2C(=O)N[C@H]3C(=O)N[C@H](C(=O)N[C@H](C(=O)O)c4cc(O)cc(O)c4-c4cc3ccc4O)[C@H](O)c3ccc(c(Cl)c3)Oc3cc2cc(c3O[C@@H]2O[C@H](CO)[C@@H](O)[C@H](O)[C@H]2O[C@H]2C[C@](C)(N)[C@H](O)[C@H](C)O2)Oc2ccc(cc2Cl)[C@H]1O [Vanc., Vancomycin hydrochloride, reference compound]
MIC (E. cloacae): > 16 µg/mL
MIC (S. marcesens): > 16 µg/mL
MIC (S. aureus; 18 h): 0.25 µg/mL
MIC (S. aureus; NCTC6571, 18 h): 0.05 µg/mL
MIC (S. aureus; NCTC10788, 18 h): 0.12 µg/mL
MIC (P. auriginosa): > 16 µg/mL
MIC (S. epidemisis; 18 h): 8 µg/mL
MIC (S. epidemisis; NCTC11047, 18 h): 8 µg/mL
MIC (MRSA; MRSA Isolate 1, upper value of MIC reading, in µg/mL): 0.12
MIC (MRSA; MRSA Isolate 2, upper value of MIC reading, in µg/mL): 0.12
MIC (MRSA; MRSA Isolate 3, upper value of MIC reading, in µg/mL): 0.12
MIC (MRSA; MRSA Isolate 4, upper value of MIC reading, in µg/mL): 0.12
MIC (MRSA; MRSA Isolate 5, upper value of MIC reading, in µg/mL): 0.12
MIC (MRSA; MRSA Isolate 6, upper value of MIC reading, in µg/mL): 0.12
MIC (MRSA; MRSA Isolate 7, upper value of MIC reading, in µg/mL): 0.12
MIC (MRSA; MRSA Isolate 8, upper value of MIC reading, in µg/mL): 0.12
MIC (MRSA; MRSA Isolate 9, upper value of MIC reading, in µg/mL): 0.12
MIC (MRSA; Staphylococcus aureus, 18 h): 0.12 µg/mL
MIC ([1]; Culture 3001562): 4 to 8 µg/mL
MIC ([1]; Culture 3002043): 4 to 8 µg/mL
MIC ([1]; Culture 3002066): 4 to 8 µg/mL
MIC ([1]; Culture 3005323): > 16 µg/mL
MIC ([1]; Culture 3005426): 4 to 8 µg/mL
MIC ([1]; Culture 3102095): > 16 µg/mL
MIC ([1]; Culture 30053530): > 16 µg/mL
MIC (K. pneumoniae): > 16 µg/mL
MIC (B. bronchiseptica): > 16 µg/mL
MIC (E. faecalis; 18 h, E. faecalis EBH1): 0.12 µg/mL
MIC (E. faecalis; 18 h, E. faecalis Isolate 1): 0.25 µg/mL
MIC (E. faecalis; 18 h, E. faecalis Isolate 2): 0.25 µg/mL
MIC (E. faecalis; 18 h, E. faecalis Isolate 3): 0.12 µg/mL
MIC (E. faecalis; 18 h, E. faecalis Isolate 4): 16 µg/mL
MIC (E. faecalis; 18 h, E. faecalis Isolate 5): 2 µg/mL
MIC (E. faecalis; NCTC5957, 18 h, E. faecalis NCTC 5957): 0.25 µg/mL
MIC (S. maltophilia): > 16 µg/mL
MIC (S. haemolyticus): 8 µg/mL
MIC (S. aboni): 0.05 µg/mL
MIC (E. faecium; 18 h): 0.12 µg/mL
MIC (E. faecium; NCTC7171, 18 h): 0.12 µg/mL
MIC (E. coli; E. coli W3110R+, upper value of MIC reading): > 16 µg/mL
MIC (E. coli; Escherichia coli, 18 h): > 16 µg/mL

CC(C)(C)c1ccc(O)c(C=NN=C(N)c2cc[n+]([O-])cc2)c1 [Compound 4PYOfe]
MIC (Moraxella catarrhalis): 8 to 16 µg/mL
MIC (Micrococcus luteus): 8 to 16 µg/mL
